Measurements: US20260008783A1, “MODULATORS OF FSHR AND USES THEREOF” (Celmatix Inc., priority 2022, published 2026)

Biological target: T1, Follicle Stimulating Hormone Receptor (FSHR) (Homo sapiens, UniProt P23945)
T1 construct: HA (N); expressed in transfected cells; host or cells: CHO-K1, transient transfection, pHM6 vector (CMV promoter)
T1 sequence (P23945 18-695): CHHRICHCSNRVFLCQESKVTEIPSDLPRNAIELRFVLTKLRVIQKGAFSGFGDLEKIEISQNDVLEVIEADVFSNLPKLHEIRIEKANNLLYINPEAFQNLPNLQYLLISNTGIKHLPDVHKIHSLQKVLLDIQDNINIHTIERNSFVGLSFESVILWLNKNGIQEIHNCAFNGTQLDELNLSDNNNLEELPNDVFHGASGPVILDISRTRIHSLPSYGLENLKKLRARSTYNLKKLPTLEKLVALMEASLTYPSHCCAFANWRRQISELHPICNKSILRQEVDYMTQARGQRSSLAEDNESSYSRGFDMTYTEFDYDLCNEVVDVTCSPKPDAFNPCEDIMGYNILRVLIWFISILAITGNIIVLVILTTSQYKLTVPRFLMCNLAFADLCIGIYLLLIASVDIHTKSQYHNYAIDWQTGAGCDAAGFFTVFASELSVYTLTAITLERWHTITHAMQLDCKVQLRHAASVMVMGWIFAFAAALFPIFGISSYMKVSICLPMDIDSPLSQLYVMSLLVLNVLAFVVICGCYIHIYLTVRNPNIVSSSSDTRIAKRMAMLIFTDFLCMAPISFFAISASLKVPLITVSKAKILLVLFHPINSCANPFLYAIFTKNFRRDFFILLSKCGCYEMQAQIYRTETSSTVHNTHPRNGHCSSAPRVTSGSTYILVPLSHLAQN
Experiment: HTRF cAMP agonist assay, FSHR, transiently transfected CHO-K1 cells
Assay type: cell-based
Settings: CHO-K1 cells transiently expressing human FSHR, read-out: IC50 FSHR LANCE CAMP

| Structure (SMILES) | IC50 |
| --- | --- |
| COc1cc2c(cc1-c1cncc(C(N)=O)c1)-c1c(c(C(=O)N3CCN(CCN)CC3(C)C)nn1-c1cc(Cl)cc(Cl)c1)CC2 [Compound 8-66] | 2790 nM |
| COc1cc2c(cc1-c1cncc(C(N)=O)c1)-c1c(c(C(=O)N3CCCC(=O)C3(C)C)nn1-c1cc(Cl)cc(Cl)c1)CC2 [Compound 8-67, 5-(1-(3,5-dichlorophenyl)-3-(2,2-dimethyl-3-oxopiperidine-1-carbonyl)-7-methoxy-4,5-dihydro-1H-benzo[g]indazol-8-yl)nicotinamide] | 4.24 nM |
| COc1cc2c(cc1-c1cncc(C(N)=O)c1)-c1c(c(C(=O)N3CCN(C)C(=O)C3(C)C)nn1-c1cc(Cl)cc(Cl)c1)CC2 [Compound 8-69] | 82.2 nM |
| COc1cc2c(cc1-c1cncc(C(N)=O)c1)-c1c(c(C(=O)N3CCN(CCO)C(=O)C3(C)C)nn1-c1cc(Cl)cc(Cl)c1)CC2 [Compound 8-70] | 140 nM |
| COc1cc2c(cc1-c1cncc(C(N)=O)c1)-c1c(c(C(=O)N3CCN(CCN)C(=O)C3(C)C)nn1-c1cc(Cl)cc(Cl)c1)CC2 [Compound 8-71] | 3730 nM |
| COc1cc2c(cc1-c1cncc(C(N)=O)c1)-c1c(c(C(=O)N3CNC(=O)C3(C)C)nn1-c1cc(Cl)cc(Cl)c1)CC2 [Compound 8-72] | 8.99 nM |
| COc1cc2c(cc1-c1cncc(C(N)=O)c1)-c1c(c(C(=O)N3CC4CC(C3)N4)nn1-c1cc(Cl)cc(Cl)c1)CC2 [Compound 8-74, 5-(3-(3,6-diazabicyclo[3.1.1]heptane-3-carbonyl)-1-(3,5-dichlorophenyl)-7-methoxy-4,5-dihydro-1H-benzo[g]indazol-8-yl)nicotinamide] | 453 nM |
| CC1(C)C(=O)NCCN1C(=O)c1nn(-c2ccccn2)c2c1CCc1ccc(-c3cncc(C(N)=O)c3)cc1-2 [Compound 8-75] | 27400 nM |
| CCC1C(=O)NCCN1C(=O)c1nn(-c2ccccn2)c2c1CCc1ccc(-c3cccnc3)cc1-2 (centres unmarked) [Compound 8-78] | 2430 nM |
| C[C@H]1CNC(=O)[C@H](C)N1C(=O)c1nn(-c2ccccn2)c2c1CCc1ccc(-c3cccnc3)cc1-2 [Compound 8-79] | 6090 nM |
| O=C(c1nn(-c2ccccn2)c2c1CCc1ccc(-c3cccnc3)cc1-2)N1CCNC(=O)C12CC2 [Compound 8-81] | 5380 nM |
| COc1cc2c(cc1-c1cncc(C(N)=O)c1)-c1c(c(C(=O)N3CCNC(=O)C3)nn1-c1cc(Cl)cc(Cl)c1)CC2 [Compound 8-82] | 79.8 nM |
| COc1cc2c(cc1-c1cncc(C(N)=O)c1)-c1c(c(C(=O)N3CCCC(=O)C3)nn1-c1cc(Cl)cc(Cl)c1)CC2 [Compound 8-83] | 38.9 nM |
| CCC1C(=O)NCCN1C(=O)c1nn(-c2cc(Cl)cc(Cl)c2)c2c1CCc1cc(OC)c(-c3cncc(C(N)=O)c3)cc1-2 (centres unmarked) [Compound 8-84] | 32.4 nM |
| COc1cc2c(cc1-c1cncc(C(N)=O)c1)-c1c(c(C(=O)N3CC(=O)NCC3(C)C)nn1-c1cc(Cl)cc(Cl)c1)CC2 [Compound 8-86] | 24.5 nM |
| COc1cc2c(cc1-c1cncc(C(N)=O)c1)-c1c(c(C(=O)N3[C@@H](C)CNC(=O)[C@@H]3C)nn1-c1cc(Cl)cc(Cl)c1)CC2 [Compound 8-87] | 8.14 nM |
| COc1cc2c(cc1-c1cncc(C(N)=O)c1)-c1c(c(C(=O)N3CCNC(=O)C34CC4)nn1-c1cc(Cl)cc(Cl)c1)CC2 [Compound 8-89] | 18.9 nM |
| COc1cc2c(cc1-c1cncc(C(N)=O)c1)-c1c(c(C(=O)N3CCC(O)C3(C)C)nn1-c1cc(Cl)cc(Cl)c1)CC2 (centres unmarked) [Compound 8-90A] | 2.15 nM |
| COc1cc2c(cc1-c1cncc(C(N)=O)c1)-c1c(c(C(=O)N3CCC(=O)C3(C)C)nn1-c1cc(Cl)cc(Cl)c1)CC2 [Compound 8-90] | 6.69 nM |
| COc1cc2c(cc1-c1cncc(C(N)=O)c1)-c1[nH]nc(C(=O)N3CCOCC3(C)C)c1CC2 [Compound 9-01] | 1790 nM |
| CC1(C)COCCN1C(=O)c1nn(-c2cc(Cl)cc(Cl)c2)c2c1CCc1ccc(-c3cncc(C(N)=O)c3)cc1-2 [Compound 9-02] | 3.81 nM |
| CC1(C)COCCN1C(=O)c1nn(-c2cc(Cl)cc(Cl)c2)c2c1CCc1cc(O)c(-c3cncc(C(N)=O)c3)cc1-2 [Compound 9-04, 5-[1-(3,5-dichlorophenyl)-3-(3,3-dimethylmorpholine-4-carbonyl)-7-hydroxy-4,5-dihydrobenzo[g]indazol-8-yl]pyridine-3-carboxamide] | 6.99 nM |
| COc1cc2c(cc1-c1cncc(C(N)=O)c1)-c1c(c(C(=O)N(C)C)nn1-c1cc(Cl)cc(Cl)c1)CC2 [Compound 9-05] | 45.2 nM |
| COc1cc2c(cc1-c1cncc(C(N)=O)c1)-c1c(c(CN3CCOCC3(C)C)nn1-c1cc(Cl)cc(Cl)c1)CC2 [Compound 9-06] | 0.976 nM |
| COc1cc2c(cc1-c1cccnc1)-c1c(c(C(=O)N3CCOCC3(C)C)nn1-c1cc(Cl)cc(Cl)c1)CC2 [Compound 9-07] | 5.98 nM |
| COc1ccc2c(c1)CCc1c(C(=O)N3CCOCC3(C)C)nn(-c3cc(Cl)cc(Cl)c3)c1-2 [Compound 9-08A] | 2480 nM |

More lines, now with the values ahead:

| IC50 | Structure (SMILES) |
| --- | --- |
| 16.2 nM | COc1cc2c(cc1OC(C)C)-c1c(c(C(=O)N3CCOCC3(C)C)nn1-c1cc(Cl)cc(Cl)c1)CC2 [Compound 9-08] |
| 830 nM | CCn1nc(C(=O)N2CCOCC2(C)C)c2c1-c1cc(-c3cncc(C(N)=O)c3)c(OC)cc1CC2 [Compound 9-11] |
| 701 nM | COc1cc2c(cc1-c1cncc(C(N)=O)c1)-c1c(c(C(=O)N3CCOCC3(C)C)nn1C(C)C)CC2 [Compound 9-12] |
| 92.4 nM | CCCn1nc(C(=O)N2CCOCC2(C)C)c2c1-c1cc(-c3cncc(C(N)=O)c3)c(OC)cc1CC2 [Compound 9-13, 5-[3-(3,3-dimethylmorpholine-4-carbonyl)-7-methoxy-1-propyl-4,5-dihydrobenzo[g]indazol-8-yl]pyridine-3-carboxamide] |
| 14.3 nM | COc1cc2c(cc1-c1cncc(C(N)=O)c1)-c1c(c(C(=O)N3CCOCC3(C)C)nn1CC(C)C)CC2 [Compound 9-14] |
| 42 nM | CCCCn1nc(C(=O)N2CCOCC2(C)C)c2c1-c1cc(-c3cncc(C(N)=O)c3)c(OC)cc1CC2 [Compound 9-15, 5-[1-butyl-3-(3,3-dimethylmorpholine-4-carbonyl)-7-methoxy-4,5-dihydrobenzo[g]indazol-8-yl]pyridine-3-carboxamide] |
| 94.1 nM | COc1cc2c(cc1-c1cncc(C(N)=O)c1)-c1c(c(C(=O)N3CCOCC3(C)C)nn1C1CCCCC1)CC2 [Compound 9-16] |
| 5.64 nM | COc1cc2c(cc1-c1cncc(C(N)=O)c1)-c1c(c(C(=O)N3CCOCC3(C)C)nn1-c1ccccc1)CC2 [Compound 9-17] |
| 0.615 nM | COc1cc2c(cc1-c1cncc(C(N)=O)c1)-c1c(c(C(=O)N3CCOCC3(C)C)nn1-c1cc(F)cc(F)c1)CC2 [Compound 9-18] |
| 3.85 nM | COc1cc(Cl)cc(-n2nc(C(=O)N3CCOCC3(C)C)c3c2-c2cc(-c4cncc(C(N)=O)c4)c(OC)cc2CC3)c1 [Compound 9-20] |
| 1.29 nM | COc1cc2c(cc1-c1cncc(C(N)=O)c1)-c1c(c(C(=O)N3CCOCC3(C)C)nn1-c1ccsc1)CC2 [Compound 9-21, 5-[3-(3,3-dimethylmorpholine-4-carbonyl)-7-methoxy-1-(3-thienyl)-4,5-dihydrobenzo[g]indazol-8-yl]pyridine-3-carboxamide] |
| 15500 nM | COc1cc(Cl)cc(-n2ncc3c2-c2cc(-c4cncc(C(N)=O)c4)c(OC)cc2CC3)c1 [Compound 9-24] |
| 5.06 nM | COc1cc2c(cc1-c1cncc(C(N)=O)c1)-c1c(c(C(=O)N3CCOCC3(C)C)nn1-c1ccccn1)CC2 [Compound 10-01, 5-[3-(3,3-dimethylmorpholine-4-carbonyl)-7-methoxy-1-(2-pyridyl)-4,5-dihydrobenzo[g]indazol-8-yl]pyridine-3-carboxamide] |
| 40.1 nM | COc1cc2c(cc1-c1cncc(C(N)=O)c1)-c1c(c(C(=O)N3CCOCC3(C)C)nn1-c1cccnc1)CC2 [Compound 10-02] |
| 190 nM | COc1cc2c(cc1-c1cncc(C(N)=O)c1)-c1c(c(C(=O)N3CCOCC3(C)C)nn1-c1ccncc1)CC2 [Compound 10-03] |
| 67.4 nM | COc1cc2c(cc1-c1cncc(C(N)=O)c1)-c1c(c(C(=O)N3CCOCC3(C)C)nn1-c1cnccn1)CC2 [Compound 10-06] |
| 22.5 nM | COc1cc2c(cc1-c1cncc(C(N)=O)c1)-c1c(c(C(=O)N3CCOCC3(C)C)nn1-c1cccnn1)CC2 [Compound 10-07] |
| 400 nM | COc1cc2c(cc1-c1cncc(C(N)=O)c1)-c1c(c(C(=O)N3CCOCC3(C)C)nn1-c1ncccn1)CC2 [Compound 10-08] |
| 165 nM | COc1cc2c(cc1-c1cncc(C(N)=O)c1)-c1c(c(C(=O)N3CCOCC3(C)C)nn1-c1cncnc1)CC2 [Compound 10-09] |
| 14.8 nM | COc1cc2c(cc1-c1cncc(C(N)=O)c1)-c1c(c(C(=O)N3CCOCC3(C)C)nn1-c1ccncn1)CC2 [Compound 10-10] |
| 50.1 nM | COC(=O)c1cc(OC)nc(-c2cc3c(cc2OC)CCc2c(C(=O)N(C)C(C)(C)C)nn(-c4cc(Cl)cc(Cl)c4)c2-3)c1 [Compound 11-01A, methyl2-[3-[tert-butyl(methyl)carbamoyl]-1-(3,5-dichlorophenyl)-7-methoxy-4,5-dihydrobenzo[g]indazol-8-yl]-6-methoxy-pyridine-4-carboxylate] |
